The source of these data is paper PMC9516332 (Frontiers in Oncology, 2022).

Where two headings read alike, the source gives them in different places.

Holding throughout (assay): Kinase panel profiling at 1 µmol/L (MSA or IMAP), percentage inhibition
Format in all cases: biochemical

Test [1] deals with T1, panel of 255 wild-type kinases (Homo sapiens, UniProt Q9H093).
T1 sequence (Q9H093 1-628): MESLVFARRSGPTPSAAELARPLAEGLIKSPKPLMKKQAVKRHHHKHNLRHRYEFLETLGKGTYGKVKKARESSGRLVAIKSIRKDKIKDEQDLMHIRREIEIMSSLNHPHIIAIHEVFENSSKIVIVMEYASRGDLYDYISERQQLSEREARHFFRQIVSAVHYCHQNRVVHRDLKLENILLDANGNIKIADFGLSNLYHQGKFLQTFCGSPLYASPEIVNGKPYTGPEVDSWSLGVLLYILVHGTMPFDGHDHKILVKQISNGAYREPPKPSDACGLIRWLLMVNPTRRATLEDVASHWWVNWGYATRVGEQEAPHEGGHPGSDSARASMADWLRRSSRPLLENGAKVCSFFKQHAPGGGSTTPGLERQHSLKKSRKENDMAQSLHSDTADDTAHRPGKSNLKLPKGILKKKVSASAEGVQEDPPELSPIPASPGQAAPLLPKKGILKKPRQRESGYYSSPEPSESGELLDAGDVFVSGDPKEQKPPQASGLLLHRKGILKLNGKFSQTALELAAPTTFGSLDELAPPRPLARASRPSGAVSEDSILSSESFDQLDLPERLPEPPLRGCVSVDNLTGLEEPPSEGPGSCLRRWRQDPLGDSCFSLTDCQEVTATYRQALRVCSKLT
The note with it: read-out: %-inhibition, NuaK2.

The target in test [2] is T2, panel of 255 wild-type kinases (Homo sapiens, UniProt Q13237).
T2 sequence (Q13237 1-762): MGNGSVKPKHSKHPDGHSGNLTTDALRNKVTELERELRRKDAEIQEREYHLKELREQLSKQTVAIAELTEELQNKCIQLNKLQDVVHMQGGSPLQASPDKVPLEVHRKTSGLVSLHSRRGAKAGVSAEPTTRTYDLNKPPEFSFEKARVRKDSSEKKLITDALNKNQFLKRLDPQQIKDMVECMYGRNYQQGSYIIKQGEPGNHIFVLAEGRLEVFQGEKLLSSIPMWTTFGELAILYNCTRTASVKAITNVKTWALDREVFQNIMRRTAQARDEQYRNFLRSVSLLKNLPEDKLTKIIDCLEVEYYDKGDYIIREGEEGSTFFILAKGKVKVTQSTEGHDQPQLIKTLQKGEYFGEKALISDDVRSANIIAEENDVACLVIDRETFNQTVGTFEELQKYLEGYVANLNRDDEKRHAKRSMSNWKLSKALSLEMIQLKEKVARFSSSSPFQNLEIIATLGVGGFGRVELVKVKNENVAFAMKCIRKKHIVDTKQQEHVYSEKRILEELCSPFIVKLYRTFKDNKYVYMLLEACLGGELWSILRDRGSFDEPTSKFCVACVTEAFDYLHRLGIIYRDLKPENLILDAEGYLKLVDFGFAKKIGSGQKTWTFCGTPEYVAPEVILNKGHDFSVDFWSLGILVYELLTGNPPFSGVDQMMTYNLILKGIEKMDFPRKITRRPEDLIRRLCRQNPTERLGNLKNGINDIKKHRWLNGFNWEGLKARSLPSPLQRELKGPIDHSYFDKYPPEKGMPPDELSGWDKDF
The note with it: read-out: %-inhibition CGK2.

Test [3] deals with T3, panel of 255 wild-type kinases (Homo sapiens, UniProt P53778).
T3 sequence (P53778 1-367): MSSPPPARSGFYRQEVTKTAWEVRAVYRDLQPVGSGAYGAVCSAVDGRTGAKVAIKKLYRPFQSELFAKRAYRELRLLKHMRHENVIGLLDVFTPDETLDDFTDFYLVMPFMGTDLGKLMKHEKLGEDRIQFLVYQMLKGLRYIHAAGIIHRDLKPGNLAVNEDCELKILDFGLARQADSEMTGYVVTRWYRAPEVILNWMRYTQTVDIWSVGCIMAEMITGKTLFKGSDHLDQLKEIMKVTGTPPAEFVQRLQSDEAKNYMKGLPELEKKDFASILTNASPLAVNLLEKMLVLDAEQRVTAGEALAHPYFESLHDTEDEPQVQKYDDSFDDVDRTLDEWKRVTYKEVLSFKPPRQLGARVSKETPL
The note with it: read-out: %-inhibition, p38γ.

For test [4], the target named is panel of 255 wild-type kinases (Homo sapiens, UniProt P49840). The note with it: read-out: %-inhibition at 1 µmol/L, GSK3α.
The target in test [5] is T4, panel of 255 wild-type kinases (Homo sapiens, UniProt Q15139).
T4 sequence (Q15139 1-912): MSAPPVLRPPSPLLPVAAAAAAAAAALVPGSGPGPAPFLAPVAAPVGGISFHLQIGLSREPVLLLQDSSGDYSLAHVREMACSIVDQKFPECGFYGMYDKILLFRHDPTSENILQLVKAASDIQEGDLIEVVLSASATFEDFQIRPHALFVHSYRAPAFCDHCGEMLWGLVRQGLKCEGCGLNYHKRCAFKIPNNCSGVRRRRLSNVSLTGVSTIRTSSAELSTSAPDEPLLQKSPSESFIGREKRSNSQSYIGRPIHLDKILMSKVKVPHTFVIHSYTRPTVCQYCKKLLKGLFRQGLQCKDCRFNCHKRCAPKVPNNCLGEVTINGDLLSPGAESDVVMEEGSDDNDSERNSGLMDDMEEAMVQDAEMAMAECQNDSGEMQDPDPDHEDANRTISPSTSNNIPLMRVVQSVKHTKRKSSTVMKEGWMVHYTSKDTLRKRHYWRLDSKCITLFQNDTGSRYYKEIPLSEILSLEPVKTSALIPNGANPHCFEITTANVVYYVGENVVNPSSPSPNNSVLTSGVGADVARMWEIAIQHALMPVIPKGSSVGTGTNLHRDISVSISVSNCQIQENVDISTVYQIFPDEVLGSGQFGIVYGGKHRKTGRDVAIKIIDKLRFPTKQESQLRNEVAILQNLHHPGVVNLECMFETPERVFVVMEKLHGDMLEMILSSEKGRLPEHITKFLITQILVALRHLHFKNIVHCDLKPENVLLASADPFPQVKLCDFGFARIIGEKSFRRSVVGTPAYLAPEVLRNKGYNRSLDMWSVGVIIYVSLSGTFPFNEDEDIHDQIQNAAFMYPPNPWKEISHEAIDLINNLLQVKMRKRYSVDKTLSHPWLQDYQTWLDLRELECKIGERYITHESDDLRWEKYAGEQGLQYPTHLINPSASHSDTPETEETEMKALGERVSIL
The note with it: read-out: %-inhibition at 1 µmol/L, PKD1.

Where [6] appears, read: NuaK2, 1 µmol/L single concentration.
Where [7] appears, read: CGK2 kinase assay, 1 µmol/L single concentration.
Setting [8] is: p38γ, 1 µmol/L single concentration.
The mark [9] stands for this setting: kinase GSK3α, 1 µmol/L single concentration.
Setting [10] is: kinase PKD1, 1 µmol/L single concentration.

`Cn1cc(-c2cc3c(N4CCN(c5ncc([C@@](C)(N)c6ccc(F)cc6)cn5)CC4)ncnn3c2)cn1` [avapritinib]: the inhibition at 1 µM was 68% in test [1] (setting [6]); 4.65% in test [2] (setting [7]); -0.867% in test [3] (setting [8]); 3% in test [4] (setting [9]); 6.4% in test [5] (setting [10]).

For the molecule `C[C@H](Nc1ncnc2nc[nH]c12)c1cc2cccc(Cl)c2c(=O)n1-c1ccccc1` [duvelisib], the inhibition at 1 µM in test [1] (setting [6]) is 3.49%; in test [2] (setting [7]), -0.775%; in test [3] (setting [8]), -4%; in test [4] (setting [9]) it was -1.9%; in test [5] (setting [10]), -3.47%.

In the case of `COc1cc2ncnc(Nc3ccc(F)c(Cl)c3)c2cc1NC(=O)/C=C/CN1CCCCC1` [dacomitinib], the inhibition at 1 µM in test [1] (setting [6]) is 2%; in test [2] (setting [7]), 10%; in test [3] (setting [8]) it was 0.231%; in test [4] (setting [9]) it was 1.45%; in test [5] (setting [10]) it was 9.49%.

Turning to `CCN1CCN(c2ccc(Nc3cc(N(C)C(=O)Nc4c(Cl)c(OC)cc(OC)c4Cl)ncn3)cc2)CC1` [infigratinib], the inhibition at 1 µM in test [1] (setting [6]) was 9%; in test [2] (setting [7]) it was -2%; in test [3] (setting [8]) it was -3%; in test [4] (setting [9]), -1.67%; in test [5] (setting [10]), 11%.

For `Cn1cnc2c(F)c(Nc3ccc(Br)cc3Cl)c(C(=O)NOCCO)cc21` [selumetinib], the inhibition at 1 µM in test [1] (setting [6]) is 6%; in test [2] (setting [7]) it was -1.64%; in test [3] (setting [8]), -1.75%; in test [4] (setting [9]), -1.06%; in test [5] (setting [10]), -0.6%.

Consider `CNC(=O)c1ccc(-c2cnc3ncc(Cc4ccc5ncccc5c4)n3n2)cc1F` [capmatinib], for which the inhibition at 1 µM in test [1] is -1%; in test [2] it was -1.13%; in test [3] it was -1.26%; in test [4] it was -0.492%; in test [5], -5%.

With `COC(=O)N[C@@H](C)CNc1nccc(-c2cn(C(C)C)nc2-c2cc(Cl)cc(NS(C)(=O)=O)c2F)n1` [encorafenib], the inhibition at 1 µM came to 3.35% in test [1] (setting [6]); 0.267% in test [2] (setting [7]); 3.2% in test [3] (setting [8]); 55% in test [4] (setting [9]); 0.18% in test [5] (setting [10]).

In the case of `Cc1cc(Nc2ncnc3ccc(NC4=NC(C)(C)CO4)cc23)ccc1Oc1ccn2ncnc2c1` [tucatinib], the inhibition at 1 µM in test [1] (setting [6]) is 6.61%; in test [2] (setting [7]), -0.162%; in test [3] (setting [8]) it was -1.75%; in test [4] (setting [9]), 5.54%; in test [5] (setting [10]) it was 28%.

Turning to `C=CC(=O)N1CCC([C@@H]2CCNc3c(C(N)=O)c(-c4ccc(Oc5ccccc5)cc4)nn32)CC1` [zanubrutinib], the inhibition at 1 µM was 0.524% in test [1] (setting [6]); -0.389% in test [2] (setting [7]); 4% in test [3] (setting [8]); -7% in test [4] (setting [9]); 5% in test [5] (setting [10]).

Turning to `Cn1cnc2c(F)c(Nc3ccc(Br)cc3F)c(C(=O)NOCCO)cc21` [binimetinib], the inhibition at 1 µM was 0.626% in test [1] (setting [6]); 2.58% in test [2] (setting [7]); 2% in test [3] (setting [8]); -2.8% in test [4] (setting [9]); -1.69% in test [5] (setting [10]).

In the case of `COc1ccc(CN2C3CC2CN(c2ccc(-c4cc(OCC(C)(C)O)cn5ncc(C#N)c45)cn2)C3)cn1` [selpercatinib], the inhibition at 1 µM is 4% in test [1] (setting [6]); 16% in test [2] (setting [7]); 0.277% in test [3] (setting [8]); 30% in test [4] (setting [9]); 3.64% in test [5] (setting [10]).

As for `CCN1C(=O)N(c2c(F)c(OC)cc(OC)c2F)Cc2cnc3[nH]c(CN4CCOCC4)cc3c21` [pemigatinib], the inhibition at 1 µM in test [1] (setting [6]) is 1.46%; in test [2] (setting [7]), 1.58%; in test [3] (setting [8]) it was 1.73%; in test [4] (setting [9]), -5.3%; in test [5] (setting [10]), 10%.

In the case of `CN1CCN(c2ccc(C(=O)Nc3n[nH]c4ccc(Cc5cc(F)cc(F)c5)cc34)c(NC3CCOCC3)c2)CC1` [entrectinib], the inhibition at 1 µM in test [1] (setting [6]) is 95%; in test [2] (setting [7]) it was 4.42%; in test [3] (setting [8]), -3%; in test [4] (setting [9]) it was -0.424%; in test [5] (setting [10]), 1.46%.

Consider `CO[C@]1(C(=O)N[C@@H](C)c2ccc(-n3cc(F)cn3)nc2)CC[C@H](c2nc(C)cc(Nc3cc(C)[nH]n3)n2)CC1` [pralsetinib], for which the inhibition at 1 µM in test [1] (setting [6]) is 75%; in test [2] (setting [7]), 25%; in test [3] (setting [8]), -1.77%; in test [4] (setting [9]), 62%; in test [5] (setting [10]), 0.3%.

Regarding `C[C@H]1Oc2cc(cnc2N)-c2c(nn(C)c2C#N)CN(C)C(=O)c2ccc(F)cc21` [lorlatinib], the inhibition at 1 µM in test [1] (setting [6]) is 30%; in test [2] (setting [7]) it was -3%; in test [3] (setting [8]), -4.48%; in test [4] (setting [9]), -2.36%; in test [5] (setting [10]) it was -0.468%.

As to `CCn1c(=O)c(-c2cc(NC(=O)Nc3ccccc3)c(F)cc2Br)cc2cnc(NC)cc21` [ripretinib], the inhibition at 1 µM in test [1] (setting [6]) is 1.36%; in test [2] (setting [7]), 0.547%; in test [3] (setting [8]), 0.893%; in test [4] (setting [9]), -0.0405%; in test [5] (setting [10]), 15%.
